From PMC7226045, “Ensartinib (X-396) Effectively Modulates Pharmacokinetic Resistance Mediated by ABCB1 and ABCG2 Drug Efflux Transporters and CYP3A4 Biotransformation Enzyme” (Cancers, 2020)
Read-outs that look alike come from different tables or passages of the source.

How the values were obtained:
CYP2D6 = biological target: T1, CYP2D6 (Homo sapiens, UniProt P10635); assay: Vivid CYP screening kit, recombinant CYP2D6; format: biochemical; conditions: recombinant enzyme
T1 construct: purchased Thermo Fisher Scientific; host or cells: insect microsomal fractions
Procedure: CYP inhibitory assay was performed as described previously. Experiments were performed with commercial Vivid CYP screening kits containing insect microsomal fractions enriched with a specific human CYP isoform, human CYP reductase, and in some cases, human cytochrome b5. The potential inhibitory activity of ensartinib toward CYP1A2, CYP2B6, CYP2C8, CYP2C9, CYP2C19, CYP2D6, CYP3A4, and CYP3A5 (i.e., all CYP isoforms that drug regulatory authorities recommend for testing of inhibition by new molecular entities) was then examined. Experiments were performed using a kinetic mode in black 96-well plates according to the manufacturer´s instructions. Briefly, 5-point serial dilutions of ensartinib or the model inhibitor recommended by the manufacturer in buffer were transferred into the wells, then a master mix consisting of a CYP isoenzyme with an NADPH regeneration system in buffer was added. After a 10 min pre-incubation, the reaction was initiated by adding a mixture of NADP^+ and the appropriate Vivid substrate, after which fluorescence was measured at 1 min intervals for 60 min using an Infinite M200 Pro microplate reader (Tecan, Männedorf, Switzerland). The enzyme concentration and incubation interval used for data evaluation (15 min) placed the systems within the linear regions of the appropriate reaction velocity curves. […]

ABCB1 [1] = test system: T2, ABCB1; assay: ABCB1 ATPase assay (ABCB1-Sf9 membrane fraction); format: biochemical; conditions: ABCB1-Sf9 membranes
T2 construct: purchased Solvo Biotechnology SB MDR1/P-gp; host or cells: Sf9 cell membranes
Procedure: The ABCB1 ATPase assay was performed with minor modifications as described previously. The ATPase activitity was determined using ABCB1 […] ATPase Kit according to the manufacturer’s instructions. Sf9 cell membranes (4 µg protein per well) were mixed with various concentrations of ensartinib. The reaction mixture was then incubated for 10 min at 37 °C in the presence or absence of 1.2 mM sodium orthovanadate. The ATPase reactions were started by the addition of 10 mM ATP magnesium salt and stopped 10 min later. After 30 min incubation, absorbance was measured at 590 nm using the microplate reader (Infinite M200, Tecan, Salzburg, Austria). Phosphate standards were present in each plate; verapamil was used as positive control for ABCB1 stimulation.

HL60-ABCC1 cells = assay: XTT proliferation assay, HL60-ABCC1; format: cell-based; conditions: Homo sapiens, 48 h, read-out: IC50, sensitivity to ensartinib
Procedure: The MTT method is not readily adapted for use with suspension cell cultures, therefore the XTT assay was used to assess the proliferation of HL60 cells. Briefly, HL60-par, HL60-ABCB1, HL60-ABCG2, and HL60-ABCC1 cells were seeded at 2 × 10^4 cells/well in 96-well culture plates. Immediately after seeding, dilutions of the tested drugs or drug combinations were added to the cells. The plates were then incubated under standard conditions (37 °C, 5% CO2) for 48 h, after which XTT solution in PBS (1 mg/mL) and phenazine methosulfate (7.50 µg/mL) were added to the cells and the plates were incubated for another 5 h. Finally, the cells’ absorbance was measured at 450 nm using a microplate reader (Infinite M200, Tecan, Salzburg, Austria). This method was used to assess the effect of ABC transporters on sensitivity to ensartinib and in drug combination assays.

ABCB1 [2] = biological target: T3, ABCB1 (Homo sapiens, UniProt P08183); assay: MDCKII monolayer transport assay, MDCKII-ABCB1; format: in vitro ADME; conditions: dog
T3 construct: expressed in transfected cells; host or cells: MDCKII-ABCB1 (from Dr. Alfred Schinkel, The Netherlands Cancer Institute)
Procedure: Transport assays were performed on microporous polycarbonate membrane filters (3 µm pore size, 24 mm diameter, Transwell 3414; Costar, Corning, NY, USA) using MDCKII parental as well as ABCB1-, ABCG2-, and ABCC1-overexpressing MDCKII cells. The cells were seeded at a density of 1.5 × 10^6 cells per insert and cultured to full confluence for 7 days with media exchanges on the second and fourth days. Before the start of the transport experiments, inserts were washed with 1 × PBS on both the apical and basal sides. The cells were then preincubated in Opti-MEM with or without model inhibitors (1 µM LY335979, 1 µM Ko143, or 25 µM MK-571). […] Ensartinib levels in samples were measured by UHPLC-MS/MS (see below). […]
Samples from the monolayer transport assays (10 µL) were mixed with 100 µL of acetonitrile and 100 µL of methanol, vortexed for 15 min, and centrifuged at 14,500 rpm for 3 min. […] The MS source parameters were set to the following: drying gas, 320 °C, flow rate 10 l/min; sheath gas, 400 °C at 12 l/min; nebulizer pressure 25 psi; capillary voltage 4000 V; nozzle voltage 0 V. Transitions of [M+H]^+ ions were detected using a dwell time of 150 ms, a cell acceleration of 4 V, and fragmentor voltages of 137 V for 547→357, 257 and 120 transitions (corresponding to collision energies of 16, 32, and 56 V).

[3] = set-up: method as in doi:10.1200/JCO.2018.36.15_suppl.e21122; conditions: in vivo pharmacokinetic studies in humans (patients); cited from earlier work

T1 sequence (P10635 whole entry): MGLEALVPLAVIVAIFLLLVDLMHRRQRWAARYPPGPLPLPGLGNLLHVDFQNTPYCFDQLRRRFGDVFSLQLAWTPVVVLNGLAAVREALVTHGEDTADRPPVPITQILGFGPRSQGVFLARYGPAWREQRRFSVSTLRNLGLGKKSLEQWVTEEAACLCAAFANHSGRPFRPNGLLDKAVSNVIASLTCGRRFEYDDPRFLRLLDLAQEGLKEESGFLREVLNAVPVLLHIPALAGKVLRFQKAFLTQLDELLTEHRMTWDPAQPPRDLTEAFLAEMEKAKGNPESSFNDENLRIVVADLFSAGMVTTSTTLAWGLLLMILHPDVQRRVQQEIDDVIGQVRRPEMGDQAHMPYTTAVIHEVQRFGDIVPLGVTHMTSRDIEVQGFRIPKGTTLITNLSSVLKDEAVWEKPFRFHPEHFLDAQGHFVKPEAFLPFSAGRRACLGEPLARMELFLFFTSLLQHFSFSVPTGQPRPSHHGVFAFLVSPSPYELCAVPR
T3 sequence (P08183 whole entry): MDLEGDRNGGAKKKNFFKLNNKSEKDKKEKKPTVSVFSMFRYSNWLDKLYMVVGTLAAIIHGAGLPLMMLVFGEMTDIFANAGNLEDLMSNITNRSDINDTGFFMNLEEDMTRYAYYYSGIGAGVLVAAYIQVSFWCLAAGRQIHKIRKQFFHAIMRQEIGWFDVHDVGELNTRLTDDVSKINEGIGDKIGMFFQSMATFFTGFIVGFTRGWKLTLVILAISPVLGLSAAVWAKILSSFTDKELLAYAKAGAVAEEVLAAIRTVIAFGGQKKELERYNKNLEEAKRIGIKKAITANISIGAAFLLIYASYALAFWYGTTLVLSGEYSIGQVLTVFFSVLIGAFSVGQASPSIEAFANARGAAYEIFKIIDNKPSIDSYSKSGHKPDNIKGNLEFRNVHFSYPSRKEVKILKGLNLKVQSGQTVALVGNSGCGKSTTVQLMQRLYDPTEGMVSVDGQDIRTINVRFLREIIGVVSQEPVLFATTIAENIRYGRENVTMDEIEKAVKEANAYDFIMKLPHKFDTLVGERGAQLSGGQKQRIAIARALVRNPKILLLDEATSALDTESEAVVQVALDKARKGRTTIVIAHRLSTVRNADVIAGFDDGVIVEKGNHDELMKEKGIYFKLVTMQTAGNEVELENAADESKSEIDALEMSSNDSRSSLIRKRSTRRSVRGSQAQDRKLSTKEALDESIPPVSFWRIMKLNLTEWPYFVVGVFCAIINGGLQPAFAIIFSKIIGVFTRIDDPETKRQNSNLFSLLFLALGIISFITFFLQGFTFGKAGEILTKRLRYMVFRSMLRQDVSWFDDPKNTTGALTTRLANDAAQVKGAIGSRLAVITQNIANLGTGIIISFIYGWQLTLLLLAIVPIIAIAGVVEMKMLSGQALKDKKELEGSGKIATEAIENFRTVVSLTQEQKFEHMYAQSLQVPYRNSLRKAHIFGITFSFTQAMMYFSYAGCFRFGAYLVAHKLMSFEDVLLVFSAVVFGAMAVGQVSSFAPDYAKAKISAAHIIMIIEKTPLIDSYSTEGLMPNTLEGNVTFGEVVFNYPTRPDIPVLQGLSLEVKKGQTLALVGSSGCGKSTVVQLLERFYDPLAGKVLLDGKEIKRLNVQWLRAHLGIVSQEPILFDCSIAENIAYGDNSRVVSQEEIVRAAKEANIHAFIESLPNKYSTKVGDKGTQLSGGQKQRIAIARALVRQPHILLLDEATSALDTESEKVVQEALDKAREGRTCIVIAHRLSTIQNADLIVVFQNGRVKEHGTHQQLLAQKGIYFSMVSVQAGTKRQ

Question: Which “inhibitory effect on CYP2D6 (in words)” value (CYP2D6) does the source give for C[C@@H]1CN(C(=O)c2ccc(NC(=O)c3cc(O[C@H](C)c4c(Cl)ccc(F)c4Cl)c(N)nn3)cc2)C[C@H](C)N1 [ensartinib, Ensartinib] here?
Answer: no appreciable inhibitory effect

Question: What about the IC50 (CYP2D6; 15 min incubation, absolute IC50, read-out: CYP2D6 inhibition IC50) of the same compound?
Answer: > 50 µM

Question: And the “effect on baseline vanadate-sensitive ATPase activity of ABCB1” value (ABCB1 [1]; activation experiment)?
Answer: significantly increased

Question: What about the “effect on verapamil-stimulated ATPase activity of ABCB1” value (ABCB1 [1]; inhibition experiment) of the same compound?
Answer: significantly decreased

Question: And the IC50 (HL60-ABCC1 cells)?
Answer: 27.4 µM

Question: And the efflux ratio at 4 h, 1 µM (ABCB1 [2]; MDCK-MDR1, 1 µM ensartinib, read-out: transport ratio (r), BA/AB)?
Answer: 15.6

Question: And the efflux ratio at 4 h, 1 µM (ABCB1 [2]; MDCK-MDR1, with LY335979, 1 µM ensartinib + 1 µM LY335979, read-out: transport ratio (r), BA/AB, with ABCB1 inhibitor)?
Answer: 1.05

Question: What about the Cmax [3] of the same compound?
Answer: 1000 nM
